Source: patent publication US20250296938A1, “Compounds that Interact with the Ras Superfamily for the Treatment of Cancers, Inflammatory Diseases, Rasopathies, and Fibrotic Disease” (SHY Therapeutics, LLC, priority 2018, published 2025)
Read-outs that look alike come from different tables or passages of the source.

What was measured:
Assay in all cases: Ras GTP binding domain inhibition assay (Cy3-GTP/Cy5-GTP competition)
KRas G12C mutant = system: KRas G12C mutant; parameters: species or system human; settings: 20 μM; for KRas G12C mutant + SOS: % inh.: with SOS (Table 7A); for KRas G12C mutant: % inh.: without SOS (Table 7A)
How it was run: (§1)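 First, His-tagged protein is coated on nickel wells overnight at 4 °C. Next, compound (20 μM single point or serial dilution) is added for 3 h at room temperature, with or without Sos exchange factor in the last hour. Finally, 100 nM labelled GTP binds for 45 min and retained signal is measured.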

KRas Q61H mutant = system: KRas Q61H mutant; parameters: species or system human; settings: 20 μM; for KRas Q61H mutant + SOS: % inh.: with SOS (Table 7A); for KRas Q61H mutant: % inh.: without SOS (Table 7A)
How it was run: as §1

KRas wild type = system: KRas wild type; parameters: species or system human; settings: 20 μM; for KRas wild type + SOS: % inh.: with SOS (Table 7A); for KRas wild type % inh.: without SOS (Table 7A)
How it was run: as §1

KRas G12D mutant = biological target: T1, KRas G12D mutant (Homo sapiens, UniProt P01116, G12D); settings: 20 μM
T1 construct: fused on or other part: His tag, used for capture on nickel-coated plates
How it was run: as §1

[1] = with SOS (Table 7A), read-out: KRas G12D mutant + SOS: % inh.
[2] = without SOS (Table 7A), read-out: KRas G12D mutant: % inh.

Structure (SMILES)	KRas G12C mutant + SOS: % inh. (KRas G12C mutant)	KRas G12C mutant: % inh. (KRas G12C mutant)	KRas Q61H mutant + SOS: % inh. (KRas Q61H mutant)	KRas Q61H mutant: % inh. (KRas Q61H mutant)	KRas wild type + SOS: % inh. (KRas wild type)	KRas wild type % inh. (KRas wild type)	inhibition at 20 µM (KRas G12D mutant; [1])	inhibition at 20 µM (KRas G12D mutant; [2])
Cc1c(-c2ccn(C)n2)sc2nc(-c3nccn3C)nc(NCCOC(=O)N(C)C)c12 [drawing 918]	C (51-75% inhibition)	D (76-100% inhibition)	D (76-100% inhibition)	C (51-75% inhibition)	D (76-100% inhibition)	D (76-100% inhibition)	76 to 100%	76 to 100%
CO[C@H]1CC[C@@H](Nc2nc(-c3nccn3C)nc3sc(-c4ccn(C(C)C)n4)c(C)c23)C1 [drawing 919]	D (76-100% inhibition)	C (51-75% inhibition)	D (76-100% inhibition)	D (76-100% inhibition)	D (76-100% inhibition)	D (76-100% inhibition)	51 to 75%	51 to 75%
CO[C@H]1C[C@@H](Nc2nc(-c3nccn3C)nc3sc(C(=O)NC(C)C)c(-c4ccccc4)c23)C1 [drawing 920]	D (76-100% inhibition)	D (76-100% inhibition)	D (76-100% inhibition)	D (76-100% inhibition)	D (76-100% inhibition)	C (51-75% inhibition)	51 to 75%	51 to 75%
COCCNC(=O)c1sc2nc(-c3nccn3C)nc(N[C@H]3C[C@@H](OC)C3)c2c1-c1ccccc1 [drawing 921]	D (76-100% inhibition)	D (76-100% inhibition)	D (76-100% inhibition)	D (76-100% inhibition)	C (51-75% inhibition)	D (76-100% inhibition)	51 to 75%	51 to 75%
CO[C@H]1C[C@@H](Nc2nc(-c3nccn3C)nc3sc(C(=O)N4CCOCC4)c(-c4ccccc4)c23)C1 [drawing 922]	C (51-75% inhibition)	D (76-100% inhibition)	C (51-75% inhibition)	D (76-100% inhibition)	C (51-75% inhibition)	C (51-75% inhibition)	51 to 75%	51 to 75%
COC1CCN(C(=O)c2sc3nc(-c4nccn4C)nc(N[C@H]4C[C@@H](OC)C4)c3c2-c2ccccc2)C1 (stereo partly shown) [drawing 923]	C (51-75% inhibition)	C (51-75% inhibition)	C (51-75% inhibition)	C (51-75% inhibition)	C (51-75% inhibition)	C (51-75% inhibition)	51 to 75%	51 to 75%
CO[C@H]1CC[C@@H](Nc2nc(-c3nccn3C)nc3sc(C(=O)NC(C)C)c(-c4ccccc4)c23)C1 [drawing 924]	D (76-100% inhibition)	C (51-75% inhibition)	D (76-100% inhibition)	D (76-100% inhibition)	D (76-100% inhibition)	D (76-100% inhibition)	76 to 100%	76 to 100%
COCCNC(=O)c1sc2nc(-c3nccn3C)nc(N[C@@H]3CC[C@H](OC)C3)c2c1-c1ccccc1 [drawing 925]	D (76-100% inhibition)	D (76-100% inhibition)	D (76-100% inhibition)	D (76-100% inhibition)	D (76-100% inhibition)	D (76-100% inhibition)	76 to 100%	76 to 100%
